Values of other authors in patent US6391881B1, “Thiourea derivatives of dihydropyridine NPY antagonists” (Bristol-Myers Squibb Company, priority 2000, dated 2002).
Each block holds one compound with its values, some of them ahead of it.

Experiments:
[1] = biological target: T1, human neuroblastoma cells (SK-N-MC) (Homo sapiens, UniProt P25929)
T1 construct: displaces I-125 Bolton-Hunter labeled NPY in human neuroblastoma cells (SK-N-MC); host or cells: SK-N-MC human neuroblastoma cells (endogenous receptor; no transfection mentioned)
T1 sequence (P25929 1-384): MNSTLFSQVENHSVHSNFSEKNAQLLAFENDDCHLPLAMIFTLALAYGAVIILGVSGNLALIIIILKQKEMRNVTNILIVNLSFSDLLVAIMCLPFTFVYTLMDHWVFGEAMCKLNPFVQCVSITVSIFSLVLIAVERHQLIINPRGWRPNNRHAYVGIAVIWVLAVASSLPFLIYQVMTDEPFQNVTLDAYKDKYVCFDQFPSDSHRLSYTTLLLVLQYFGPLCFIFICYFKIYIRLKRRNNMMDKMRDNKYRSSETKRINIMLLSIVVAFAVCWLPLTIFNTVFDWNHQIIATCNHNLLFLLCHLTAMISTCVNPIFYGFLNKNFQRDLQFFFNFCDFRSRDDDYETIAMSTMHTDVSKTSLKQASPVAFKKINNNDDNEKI

[2] = test system: NPY-induced increase in intracellular Ca++ in SK-N-MG cells
[3] = test system: NPY-induced pressor response; conditions: pithed rat
[4] = test system: NPY-induced contractions in guinea pig basilar artery
[5] = test system: NPY-induced Ca++ entry in HEL cells
[6] = biological target: T2, human neuroblastoma cells (Homo sapiens, UniProt P25929)
T2 construct: displacing I-125 labeled NPY and PYY in human neuroblastoma cells
T2 sequence (P25929 1-384): T1 sequence (P25929 1-384)

[7] = test system: NPY-related increases in diastolic blood pressure; conditions: anesthetized guinea pig model

displacement of I-125 Bolton-Hunter labeled NPY (in words) [1]: displaces
SMILES: NC(N)=NCCC[C@@H](NC(=O)C(c1ccccc1)c1ccccc1)C(=O)NCc1ccc(O)cc1 [BIBP 3226]
antagonism of NPY-induced increase in intracellular Ca++ (in words) [2]: antagonized
antagonism of NPY-induced pressor response (in words) [3]: antagonizing

SMILES: O=P(O)(O)OC1[C@H](OP(=O)(O)O)[C@H](O)C(O)[C@H](O)[C@H]1OP(=O)(O)O (stereo partly drawn) [D-Myo-inositol-1,2,6-triphosphate]
antagonism of NPY-induced contractions (in words) [4]: potent but non-competitive antagonist

SMILES: N=C(NCCCc1cnc[nH]1)NCCC(c1cc(F)cc(F)c1)c1ccccn1 (centres unmarked) [He 90481]
antagonism of NPY-induced Ca++ entry (in words) [5]: weak but competitive antagonist
pA2, antagonism of NPY-induced Ca++ entry [5]: 4.43

displacement of I-125 labeled NPY and PYY (in words) [6]: displacing
SMILES: CN(C)CC1CCC(CN=C(N)c2ccc(C[C@@H](NC(=O)[C@@H](Cc3ccccc3)NS(=O)(=O)c3ccc4ccccc4c3)C(=O)N3CCCC3)cc2)CC1 (some centres unmarked) [SR 120819A]
antagonism of NPY-related increases in diastolic blood pressure (in words) [7]: antagonized
